Values of other authors, collected in patent US20060127478A1, “Oral dosage formulation” (priority 2003, published 2006).
Like-named read-outs stand apart in the source and are kept apart here.

Assays:
[1] = in vivo
gastric secretion = conditions: following oral administration
[2] = Taha et al., NEJM 1996

| SMILES | incidence of adverse effects (abdominal pain, diarrhea, nausea, flatulence) [1] | time at which basal, nocturnal, food and pentagastrin stimulated gastric secretion is inhibited (gastric secretion) | time to maximum effect on gastric secretion (gastric secretion; maximum effect dose dependent) | frequency of gastric and duodenal ulcers associated with non-selective NSAIDs (diclofenac, ibuprofen, naproxen, ketoprofen) [2] | nocturnal intra-gastric pH, mean value (nocturnal dose of 20 mg) | nocturnal intra-gastric pH, mean value (nocturnal dose of 40 mg) | basal daytime inter-digestive pH (three and eight hours following administration after breakfast of 20 or 40 mg) |
| --- | --- | --- | --- | --- | --- | --- | --- |
| CCCCC(C)(O)C/C=C/[C@H]1[C@H](O)CC(=O)[C@@H]1CCCCCCC(=O)OC (mixture of isomers) [Misoprostol] | high incidence |  |  |  |  |  |  |
| NC(N)=Nc1nc(CSCCC(N)=NS(N)(=O)=O)cs1 [Famotidine] |  | one | one to three | reduce the frequency | 5.0 | 6.4 | about 5 |
